Experimental findings from patent US20210353648A1, “GRAPIPRANT UNIT DOSAGE FORMS” (Arrys Therapeutics, Inc., priority 2018, published 2021) are described below.

This data set can be described thus: Phase 1 crossover food effect study of 375 mg grapiprant tablets: pharmacokinetics. Type of data set: in vivo, human. The settings on record: for AUC(0-inf) / Cmax / AUC(0-t) / half-life / Tmax: human, serum, po, 375 mg, single oral dose, healthy subjects (N = 12); for AUC(0-inf) / Cmax / AUC(0-t) / half-life: arithmetic mean; for AUC(0-t): read-out: AUC(0-tlast); for half-life: read-out: t½ (converted); for Tmax: median. As for the experimental part: This study was a randomized, open-label, single dose, 2-period crossover design. Each subject participated in 2 study periods. In each study period, subjects received a dose of 375 mg administered as 3×125 mg tablets of grapiprant under fasted or fed conditions in a crossover manner according to a randomized dosing sequence. The fed condition consisted of a standardized high-fat meal. Following an initial screening period of no longer than 28 days, 12 eligible subjects were to be randomized to the 2 treatment sequences and 2 treatment period sessions as shown in Table 6-1.
In each study period, subjects received 375 mg grapiprant (as 3×125 mg tablets) under either fed or fasted conditions. Each subject received 2 single doses: Day 1 and Day 8.
Blood samples were collected at the following times: 0 (just prior to dosing), 0.5, 1, 1.5, 2, 2.5, 3, 4, 6, 8, 12, 16, 24 and 48 hours following each dosing. The primary pharmacokinetic endpoints of the study were AUC(0-tlast) (area under the serum concentration-time curve from time 0 to the time of the last quantifiable concentration), AUC(0-inf) (AUC from time 0 to infinite time), and Cmax (maximum observed serum concentration) of serum grapiprant. The secondary pharmacokinetic endpoints of the study were Tmax (the time to Cmax) and t½ (terminal elimination half-life), as the data permitted.
Log-transformed AUC(0-inf), AUC(0-tlast) and Cmax were each analyzed using a mixed effects model containing sequence, treatment (fed and fasted), and period as the fixed effects and subject (within sequence) as the random effect. The SAS procedure PROC MIXED was used for the analysis. Compound symmetry was assumed, and Restricted Maximum Likelihood Estimates (REML) were utilized.
For AUC(0-inf), AUC(0-tlast) and Cmax, on the natural log scale, estimates of the adjusted mean difference between grapiprant tablet under fed condition (test) and grapiprant under fasted condition (reference) and their corresponding 90% confidence intervals were calculated.
The anti-logs (exponent) of the difference and confidence interval were taken to estimate the mean ratio (relative bioavailability) and its corresponding 90% confidence interval. Vital signs, adverse events, ECG parameters, and safety laboratory values were summarized with descriptive statistics.

[1] abbreviates: 375 mg tablets, adjusted geometric means, N = 12.
Setting [2] is: 375 mg tablets, standard high-fat meal compared to fasted.
The mark [3] stands for this setting: 375 mg tablet-fed (high-fat meal).

Read-outs that look alike come from different tables or passages of the source.

Regarding `CCc1nc2c(C)nc(C)cc2n1-c1ccc(CCNC(=O)NS(=O)(=O)c2ccc(C)cc2)cc1` [Grapiprant, N-((4-(2-ethyl-4,6-dimethyl-1H-imidazo[4,5-c]pyridin-1-yl)phenethyl)carbamoyl)-4-methylbenzenesulfonamide], under setting [1], the “Geometric Mean Ratio (fed/fasted) of AUC(0-inf)” value is reported as 87.48%, the “Geometric Mean Ratio (fed/fasted) of AUC(0-tlast)” value came out at 87.42% and the “Geometric Mean Ratio (fed/fasted) of Cmax” value was 64.16%. For the same compound, under setting [2], the “decrease in AUC” value turned out to be 13% and the “decrease in Cmax” value was determined as 36%. Where the note is “375 mg tablet-fasted”, the AUC(0-inf) was found to be 29100 ng·h/mL, the Cmax stood at 8990 ng/mL, the AUC(0-t) is 28900 ng·h/mL and the half-life is 9.48 h. Further, the Tmax (375 mg tablet-fasted) worked out at 1 h. Further, under setting [3], the AUC(0-inf) is 24800 ng·h/mL, the Cmax is 5840 ng/mL, the AUC(0-t) was found to be 24600 ng·h/mL and the half-life was 8.52 h. Moreover, the Tmax under setting [3] is 4 h.
